Results on one compound are retold here after patent publication EP0203441A2, “Substituted benzoquinolizines, process for their preparation and their use as medicaments” (BAYER AG, priority 1985, dated 1986).

The experiment has as its system ketaminanästhesierten Katze. In words: Effect on venous capacity (plethysmograph) and mean arterial pressure in the anaesthetised cat. In kind it is in vivo. To be noted: Dosis 0,1 mg/kg i.v., ketamine-anaesthetised cat. From the text: Die Wirkung der erfindungsgemäßen Stoffe auf die Venenkapazität wird an der narkotisierten Katze mittels eines Plethysmographen gemessen. Als Vergleich wird in jedem Versuch als Standardsubstanz Natrium-Nitroprussid untersucht.

In the case of `CCOc1ccc2c(c1)CCN1CCC(Nc3ccccc3NC(C)=O)CC21` (single isomer, unassigned) [Beispiel 26], the art.Mitteldruck result was “Ø”.
